Measured values as given in ChEMBL document CHEMBL1201862, “PubChem BioAssay data set” (2004).
Active and inactive are the calls of the source.

Tests used:
Beta-lactamase [1] = target: Beta-lactamase (Salmonella choleraesuis (strain SC-B67), UniProt Q5J463); assay: Epi-absorbance-based counterscreen for selective VIM-2 inhibitors: dose response biochemical high throughput screening assay to identify inhibitors of TEM-1 serine-beta-lactamase.
Beta-lactamase [2] = target: T1, Beta-lactamase (Pseudomonas aeruginosa, UniProt Q79MP6); assay: inhibition of IMP-1 beta-lactamase activity – biochemical, epi-absorbance, selectivity assay for VIM-2 inhibitor project, dose response (AID 1920)
Beta-lactamase [3] = target: T1, Beta-lactamase; assay: […] counterscreen for selective VIM-2 inhibitors: dose response biochemical high throughput screening assay to identify inhibitors of IMP-1 metallo-beta-lactamase.
[4] = alpha-synuclein stem-loop luciferase translation blockers – H4 neuroglioma cells, luminescence, confirmation (AID 1988); format: functional, cell-based
[5] = Luminescence Cell-Based Dose Response HTS to Identify Inhibitors of 5'UTR Stem-Loop Driven Prion Protein mRNA Translation in H4 Neuroglioblastoma Cells. [Related pubchem assays: 1827 (Project Summary), 1813 (Primary HTS)]; format: functional
[6] = target: DNA dC->dU-editing enzyme APOBEC-3G (Homo sapiens, UniProt Q9HC16); assay: Dose Response confirmation of small molecule APOBEC3G DNA Deaminase Inhibitors via a fluorescence-based single-stranded DNA deaminase assay. [Related pubchem assays (depositor defined):AID493012, AID493028]; format: functional
[7] = luciferase reporter signal suppression in cells – H4 neuroglioma cells, luminescence, dose response (AID 1990); format: functional, cell-based
[8] = target: DNA dC->dU-editing enzyme APOBEC-3A (Homo sapiens, UniProt P31941); assay: A3A deaminase inhibition for selectivity – biochemical, dose response (AID 504722); format: functional
Caspase-9 = Caspase-9 (Homo sapiens, UniProt P55211); assay: inhibitors of purified CASP9 protease – biochemical, fluorescence, plate reader, cherry-picked samples, selectivity assay for caspase-6 inhibitor project, dose response (AID 743293)
[9] = blockade of melanocortin 4 receptor signaling – cell-based, plate reader, cherry pick, counter-screen for LGR2 antagonist project, dose response (AID 743444); format: functional;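 note: transfected HEK 293 cells stimulated with alpha-MSH peptide; potency of inhibitors of the alpha-MSH evoked signal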
Nonstructural protein 1 = Nonstructural protein 1 (Influenza A virus, UniProt Q194T2); format: functional, Influenza A virus (A/California/07/2009(H1N1))
[10] = toxicity toward HepG2 liver cells – cell-based, plate reader, cherry-pick, antagonist series, cytotoxicity control, dose response (AID 743416); format: functional
[11] = target: T2, DNA repair protein RAD52 homolog (Homo sapiens, UniProt P43351); format: functional, biochemical
T2 sequence (P43351 whole entry): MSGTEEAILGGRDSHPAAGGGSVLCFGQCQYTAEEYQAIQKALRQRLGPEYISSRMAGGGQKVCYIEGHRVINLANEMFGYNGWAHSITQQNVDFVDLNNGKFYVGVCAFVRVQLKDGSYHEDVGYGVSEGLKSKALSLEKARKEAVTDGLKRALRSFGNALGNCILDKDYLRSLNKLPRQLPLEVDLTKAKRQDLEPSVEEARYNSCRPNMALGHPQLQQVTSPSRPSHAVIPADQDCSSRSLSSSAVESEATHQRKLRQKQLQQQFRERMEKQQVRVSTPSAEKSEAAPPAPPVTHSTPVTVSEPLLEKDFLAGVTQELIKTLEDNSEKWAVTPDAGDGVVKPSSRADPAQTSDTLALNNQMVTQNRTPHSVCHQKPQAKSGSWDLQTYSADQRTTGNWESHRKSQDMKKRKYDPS

A549 = assay: viability loss in A549 cells – cell-based, plate reader, cherry-pick samples, cytotoxicity control, dose response (AID 687028); format: functional; conditions: Homo sapiens
[12] = target: T3, Apoptotic protease-activating factor 1 (Homo sapiens, UniProt O14727); format: functional
T3 sequence (O14727 whole entry): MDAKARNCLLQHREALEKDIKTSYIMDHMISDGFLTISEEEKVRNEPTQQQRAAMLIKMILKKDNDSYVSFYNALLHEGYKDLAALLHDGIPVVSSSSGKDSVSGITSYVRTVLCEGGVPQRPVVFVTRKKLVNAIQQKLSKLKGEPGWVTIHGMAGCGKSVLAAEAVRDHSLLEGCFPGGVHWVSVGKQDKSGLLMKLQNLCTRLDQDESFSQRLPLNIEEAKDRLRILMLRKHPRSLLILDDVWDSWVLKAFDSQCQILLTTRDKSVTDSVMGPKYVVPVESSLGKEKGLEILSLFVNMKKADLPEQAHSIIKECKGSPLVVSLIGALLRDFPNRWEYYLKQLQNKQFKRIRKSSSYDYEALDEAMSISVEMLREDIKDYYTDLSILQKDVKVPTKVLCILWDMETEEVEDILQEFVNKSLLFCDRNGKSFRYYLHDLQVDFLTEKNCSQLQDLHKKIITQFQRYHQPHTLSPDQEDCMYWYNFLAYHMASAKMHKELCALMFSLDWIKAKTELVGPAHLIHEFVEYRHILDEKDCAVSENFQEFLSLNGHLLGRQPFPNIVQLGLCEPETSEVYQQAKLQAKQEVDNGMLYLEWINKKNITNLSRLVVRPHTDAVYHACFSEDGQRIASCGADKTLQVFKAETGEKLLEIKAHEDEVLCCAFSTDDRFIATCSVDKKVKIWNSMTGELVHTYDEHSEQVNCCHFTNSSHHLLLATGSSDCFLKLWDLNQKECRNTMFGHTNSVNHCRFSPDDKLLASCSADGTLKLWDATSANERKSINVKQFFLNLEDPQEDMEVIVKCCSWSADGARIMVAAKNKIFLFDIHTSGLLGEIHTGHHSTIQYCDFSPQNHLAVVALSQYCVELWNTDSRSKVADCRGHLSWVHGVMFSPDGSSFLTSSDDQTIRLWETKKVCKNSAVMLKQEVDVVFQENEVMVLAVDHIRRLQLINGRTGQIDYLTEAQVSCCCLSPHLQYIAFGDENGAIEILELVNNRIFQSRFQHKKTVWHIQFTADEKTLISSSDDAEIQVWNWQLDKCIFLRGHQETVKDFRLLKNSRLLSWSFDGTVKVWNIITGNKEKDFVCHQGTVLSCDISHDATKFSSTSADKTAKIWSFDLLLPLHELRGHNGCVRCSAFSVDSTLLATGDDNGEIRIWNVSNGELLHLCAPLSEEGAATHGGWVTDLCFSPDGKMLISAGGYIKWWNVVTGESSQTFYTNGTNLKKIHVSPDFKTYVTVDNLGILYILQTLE

Caspase-8 = Caspase-8 (Homo sapiens, UniProt Q14790); assay: inhibitors of purified CASP8 protease – biochemical, Z-IETD-R110 fluorescence, cherry-picked samples, selectivity assay for caspase-6 inhibitor project, dose response (AID 743294)
Caspase-7 = Caspase-7 (Homo sapiens, UniProt P55210); assay: caspase-7 enzyme inhibition, selectivity check – biochemical, DEVD-R110 fluorescence, cherry-pick, selectivity assay for caspase-6 inhibitor project, dose response (AID 743295); format: functional
Caspase-6 = target: T4, Caspase-6 (Homo sapiens, UniProt P55212); assay: inhibition of CASP6 peptide cleavage – biochemical, VEID-R110 fluorescence, cherry-pick, dose response (AID 720632)
T4 sequence (P55212 whole entry): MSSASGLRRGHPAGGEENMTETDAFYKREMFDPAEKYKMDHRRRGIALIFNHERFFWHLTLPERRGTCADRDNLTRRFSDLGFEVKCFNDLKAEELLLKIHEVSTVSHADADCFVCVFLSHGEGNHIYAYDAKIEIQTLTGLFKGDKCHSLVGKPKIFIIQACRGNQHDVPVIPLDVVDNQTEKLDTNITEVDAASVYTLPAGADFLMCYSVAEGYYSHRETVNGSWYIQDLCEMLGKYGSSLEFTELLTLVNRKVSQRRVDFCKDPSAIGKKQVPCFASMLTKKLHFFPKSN

[13] = A549 cell cytotoxicity, dose response, cytotoxicity control, plate reader, cherry-pick, antagonist series (AID 743412); format: functional, cell-based
[14] = blockers of bursicon-stimulated LGR2 cAMP reporter – cell-based, HEK293, CRE-luciferase reporter, cherry pick, set 2, dose response (AID 743343); format: functional;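 note: transfected cells were stimulated with diluted bursicon conditioned medium after compound addition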
Vero = assay: viability loss in Vero cells – cell-based, plate reader, cherry-pick samples, cytotoxicity control, dose response (AID 687020); format: functional; conditions: Chlorocebus sabaeus
Protein Wnt-3a = Protein Wnt-3a (Mus musculus, UniProt P27467); assay: antagonism of Wnt3a pathway luciferase reporter – Wnt-LIGHT cells, luminescence, selectivity assay for Gli-SUFU antagonist project, dose response (AID 651570); format: functional; conditions: read-out: IC50_Mean;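 note: Wnt-LIGHT reporter cells stimulated with conditioned medium from Wnt3a-producing cells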
[15] = target: Arf-GAP with SH3 domain, ANK repeat and PH domain-containing protein 1 (Homo sapiens, UniProt Q9ULH1); format: functional;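 note: biochemical fluorescence polarization dose–response screen measuring inhibition of ASAP1; ASAP1 GAP domain stimulating GTP hydrolysis by truncated human ARF1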
[16] = target: T5, Nuclear receptor subfamily 0 group B member 1 (Homo sapiens, UniProt P51843); format: functional, cell-based;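 note: HEK293T cells transfected with SF-1 and DAX-1 plus StAR promoter luciferase reporter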
T5 sequence (P51843 whole entry): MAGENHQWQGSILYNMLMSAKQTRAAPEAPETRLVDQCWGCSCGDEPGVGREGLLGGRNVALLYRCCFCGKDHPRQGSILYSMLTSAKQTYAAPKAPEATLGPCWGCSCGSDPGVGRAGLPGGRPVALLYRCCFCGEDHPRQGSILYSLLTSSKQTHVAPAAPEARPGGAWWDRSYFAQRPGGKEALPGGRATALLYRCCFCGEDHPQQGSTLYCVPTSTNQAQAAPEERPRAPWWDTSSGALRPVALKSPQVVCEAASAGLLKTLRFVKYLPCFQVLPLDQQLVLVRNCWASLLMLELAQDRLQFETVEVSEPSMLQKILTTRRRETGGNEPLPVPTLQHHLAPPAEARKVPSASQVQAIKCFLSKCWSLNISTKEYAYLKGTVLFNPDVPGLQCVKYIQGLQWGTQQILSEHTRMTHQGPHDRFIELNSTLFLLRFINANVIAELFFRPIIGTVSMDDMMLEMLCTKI

cells = format: functional, cell-based
Aminopeptidase N = target: T6, Aminopeptidase N (Plasmodium falciparum FcB1/Columbia, UniProt O96935); assay: malaria alanyl aminopeptidase activity blockers – biochemical, fluorogenic H-Leu-NHMec substrate, 1536-well (AID 1445); set-up: species or system Plasmodium falciparum 3D7, 3D7
T6 sequence (O96935 whole entry): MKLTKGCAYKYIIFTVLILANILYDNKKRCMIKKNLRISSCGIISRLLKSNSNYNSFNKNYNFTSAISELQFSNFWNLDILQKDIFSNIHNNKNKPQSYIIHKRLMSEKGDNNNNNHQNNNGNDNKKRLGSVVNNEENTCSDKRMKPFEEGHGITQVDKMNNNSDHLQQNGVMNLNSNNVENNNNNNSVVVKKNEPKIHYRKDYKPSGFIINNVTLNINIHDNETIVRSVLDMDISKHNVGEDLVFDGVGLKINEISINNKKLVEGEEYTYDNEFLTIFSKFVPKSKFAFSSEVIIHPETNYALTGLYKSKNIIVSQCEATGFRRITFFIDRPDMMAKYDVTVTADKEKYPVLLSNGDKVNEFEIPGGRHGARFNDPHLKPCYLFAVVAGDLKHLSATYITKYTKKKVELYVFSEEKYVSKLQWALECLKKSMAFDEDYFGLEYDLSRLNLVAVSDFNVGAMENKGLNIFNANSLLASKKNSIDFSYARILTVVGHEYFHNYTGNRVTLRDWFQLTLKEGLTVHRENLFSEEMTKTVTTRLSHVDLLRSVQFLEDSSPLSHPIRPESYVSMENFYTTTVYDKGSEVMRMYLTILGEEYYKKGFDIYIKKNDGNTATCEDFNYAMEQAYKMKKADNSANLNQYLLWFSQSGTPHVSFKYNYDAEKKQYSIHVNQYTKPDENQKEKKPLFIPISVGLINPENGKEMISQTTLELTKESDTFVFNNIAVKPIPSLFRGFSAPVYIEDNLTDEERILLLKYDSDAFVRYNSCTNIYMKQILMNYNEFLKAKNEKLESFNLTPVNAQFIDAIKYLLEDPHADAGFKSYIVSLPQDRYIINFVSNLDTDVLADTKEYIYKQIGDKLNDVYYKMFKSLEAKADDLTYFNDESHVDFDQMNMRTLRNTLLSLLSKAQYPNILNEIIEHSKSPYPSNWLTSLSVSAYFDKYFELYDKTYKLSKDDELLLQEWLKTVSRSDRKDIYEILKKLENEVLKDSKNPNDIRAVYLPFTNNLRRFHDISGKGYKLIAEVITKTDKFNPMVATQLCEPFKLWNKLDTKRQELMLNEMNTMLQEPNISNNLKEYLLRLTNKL

[17] = target: T7, Small ubiquitin-related modifier 1 (Homo sapiens, UniProt P63165); assay: SUMO1 protein interaction blockers, potency – biochemical, fluorescence polarization, uHTS hits, dose response (AID 624382); format: functional; conditions: read-out: IC50_Mean
[18] = target: T7, Small ubiquitin-related modifier 1; assay: SUMO1 protein-protein binding blockers, potency – biochemical, FRET, dose response (AID 624383); format: functional; conditions: read-out: IC50_Mean
Genome polyprotein = Genome polyprotein (dengue virus type 2, UniProt P29990); assay: flavivirus cap methylation enzyme inhibition – biochemical, confirmation dose response, primary screen (AID 588689); format: functional
Sequence of Genome polyprotein (P29990 2492-3391 limits assumed): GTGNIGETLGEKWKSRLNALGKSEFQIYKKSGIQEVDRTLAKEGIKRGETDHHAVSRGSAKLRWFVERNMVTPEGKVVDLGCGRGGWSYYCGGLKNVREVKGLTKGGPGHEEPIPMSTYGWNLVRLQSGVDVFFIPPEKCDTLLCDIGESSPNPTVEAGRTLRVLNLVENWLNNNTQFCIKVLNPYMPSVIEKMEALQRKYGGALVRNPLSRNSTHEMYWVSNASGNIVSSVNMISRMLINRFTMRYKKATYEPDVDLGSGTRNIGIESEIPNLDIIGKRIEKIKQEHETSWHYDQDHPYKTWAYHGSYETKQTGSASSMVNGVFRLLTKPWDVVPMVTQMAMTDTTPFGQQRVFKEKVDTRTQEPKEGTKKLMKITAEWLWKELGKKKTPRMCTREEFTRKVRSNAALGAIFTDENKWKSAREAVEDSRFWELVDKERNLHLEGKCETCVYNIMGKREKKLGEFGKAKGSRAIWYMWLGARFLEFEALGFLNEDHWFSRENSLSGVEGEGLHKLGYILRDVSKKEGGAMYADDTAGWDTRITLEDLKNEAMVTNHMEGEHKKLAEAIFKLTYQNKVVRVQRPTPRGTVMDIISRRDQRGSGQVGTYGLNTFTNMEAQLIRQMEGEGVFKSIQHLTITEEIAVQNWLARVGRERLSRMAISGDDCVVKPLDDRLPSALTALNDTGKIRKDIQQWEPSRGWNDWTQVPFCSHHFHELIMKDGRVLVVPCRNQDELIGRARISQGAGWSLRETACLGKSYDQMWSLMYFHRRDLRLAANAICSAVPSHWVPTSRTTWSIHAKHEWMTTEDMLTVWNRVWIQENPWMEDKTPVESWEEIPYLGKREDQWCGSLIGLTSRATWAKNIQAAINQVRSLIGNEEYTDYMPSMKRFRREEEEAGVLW

T7 sequence (P63165 whole entry): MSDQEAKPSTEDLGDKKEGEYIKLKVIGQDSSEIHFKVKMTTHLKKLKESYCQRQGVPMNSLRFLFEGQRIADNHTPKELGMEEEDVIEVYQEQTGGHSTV
Sequence of Caspase-8 (Q14790 217-374 limits assumed): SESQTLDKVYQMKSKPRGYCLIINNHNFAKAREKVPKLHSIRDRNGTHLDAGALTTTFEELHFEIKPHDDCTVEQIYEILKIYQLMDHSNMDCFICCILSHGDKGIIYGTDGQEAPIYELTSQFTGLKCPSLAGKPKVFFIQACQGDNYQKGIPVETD
Sequence of Caspase-8 (Q14790 385-479 limits assumed): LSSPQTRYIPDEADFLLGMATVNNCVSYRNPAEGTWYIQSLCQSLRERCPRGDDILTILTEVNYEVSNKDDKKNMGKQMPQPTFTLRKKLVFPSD
Sequence of Caspase-7 (P55210 24-198 limits assumed): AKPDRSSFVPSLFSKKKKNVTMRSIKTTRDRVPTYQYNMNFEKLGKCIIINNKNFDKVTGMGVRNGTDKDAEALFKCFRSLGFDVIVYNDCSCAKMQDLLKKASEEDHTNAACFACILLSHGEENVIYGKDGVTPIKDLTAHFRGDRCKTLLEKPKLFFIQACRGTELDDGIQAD
Sequence of Caspase-7 (P55210 207-303 limits assumed): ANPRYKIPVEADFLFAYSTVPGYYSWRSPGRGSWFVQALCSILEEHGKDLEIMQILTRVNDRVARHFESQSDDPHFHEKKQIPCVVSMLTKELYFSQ
T1 sequence (Q79MP6 whole entry): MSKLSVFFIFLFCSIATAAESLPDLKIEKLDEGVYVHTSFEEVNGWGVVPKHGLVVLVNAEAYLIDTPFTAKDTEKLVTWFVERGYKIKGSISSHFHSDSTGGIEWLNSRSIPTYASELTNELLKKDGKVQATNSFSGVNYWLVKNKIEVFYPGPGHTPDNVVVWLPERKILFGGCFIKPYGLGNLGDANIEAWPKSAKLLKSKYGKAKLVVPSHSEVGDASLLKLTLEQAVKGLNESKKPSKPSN
Sequence of Nonstructural protein 1 (Q194T2 whole entry): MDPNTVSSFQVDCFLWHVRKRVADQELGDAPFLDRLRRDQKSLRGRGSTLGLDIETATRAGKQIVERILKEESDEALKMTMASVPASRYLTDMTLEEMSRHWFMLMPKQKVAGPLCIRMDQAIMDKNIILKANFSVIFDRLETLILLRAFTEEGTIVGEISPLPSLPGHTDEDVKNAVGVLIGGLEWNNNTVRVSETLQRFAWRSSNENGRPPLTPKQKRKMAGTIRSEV
Sequence of Caspase-9 (P55211 1-315 limits assumed): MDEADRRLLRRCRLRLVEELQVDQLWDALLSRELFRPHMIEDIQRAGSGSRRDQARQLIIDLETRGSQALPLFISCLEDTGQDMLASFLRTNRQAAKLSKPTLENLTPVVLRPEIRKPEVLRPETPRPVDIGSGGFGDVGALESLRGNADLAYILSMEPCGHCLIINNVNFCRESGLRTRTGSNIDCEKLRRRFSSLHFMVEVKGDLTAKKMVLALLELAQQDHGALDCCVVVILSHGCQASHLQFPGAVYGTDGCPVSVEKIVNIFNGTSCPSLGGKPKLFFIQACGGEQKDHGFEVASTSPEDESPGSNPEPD
Sequence of Caspase-9 (P55211 331-416 limits assumed): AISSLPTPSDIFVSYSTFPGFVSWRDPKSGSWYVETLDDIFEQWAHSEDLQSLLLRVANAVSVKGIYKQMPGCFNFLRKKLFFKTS
Sequence of Beta-lactamase (Salmonella choleraesuis (strain SC-B67), UniProt Q5J463) (Q5J463 whole entry): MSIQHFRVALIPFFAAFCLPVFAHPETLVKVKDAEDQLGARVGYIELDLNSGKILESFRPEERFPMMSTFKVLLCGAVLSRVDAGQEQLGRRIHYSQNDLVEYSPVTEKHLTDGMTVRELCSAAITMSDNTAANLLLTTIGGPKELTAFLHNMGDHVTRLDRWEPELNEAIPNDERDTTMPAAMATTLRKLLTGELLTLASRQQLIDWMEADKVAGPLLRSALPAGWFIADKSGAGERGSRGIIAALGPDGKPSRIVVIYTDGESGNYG
Sequence of DNA dC->dU-editing enzyme APOBEC-3A (P31941 whole entry): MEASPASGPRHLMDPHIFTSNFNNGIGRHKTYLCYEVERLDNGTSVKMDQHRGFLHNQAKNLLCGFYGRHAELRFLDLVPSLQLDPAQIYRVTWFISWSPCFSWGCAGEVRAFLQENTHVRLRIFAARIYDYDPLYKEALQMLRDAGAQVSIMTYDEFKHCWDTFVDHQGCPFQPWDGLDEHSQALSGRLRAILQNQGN
Sequence of DNA dC->dU-editing enzyme APOBEC-3G (Q9HC16 whole entry): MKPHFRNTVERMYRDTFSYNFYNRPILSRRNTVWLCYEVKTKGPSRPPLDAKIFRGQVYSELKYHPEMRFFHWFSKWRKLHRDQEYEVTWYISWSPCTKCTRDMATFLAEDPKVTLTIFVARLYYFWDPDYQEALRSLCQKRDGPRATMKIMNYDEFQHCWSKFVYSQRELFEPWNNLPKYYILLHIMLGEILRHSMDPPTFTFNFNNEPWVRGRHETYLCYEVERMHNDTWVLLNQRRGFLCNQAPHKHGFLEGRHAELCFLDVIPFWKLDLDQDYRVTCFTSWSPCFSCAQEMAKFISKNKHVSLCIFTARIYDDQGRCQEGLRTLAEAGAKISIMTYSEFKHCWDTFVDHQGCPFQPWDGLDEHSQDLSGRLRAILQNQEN
Sequence of Arf-GAP with SH3 domain, ANK repeat and PH domain-containing protein 1 (Q9ULH1 whole entry, the tested form may be a part): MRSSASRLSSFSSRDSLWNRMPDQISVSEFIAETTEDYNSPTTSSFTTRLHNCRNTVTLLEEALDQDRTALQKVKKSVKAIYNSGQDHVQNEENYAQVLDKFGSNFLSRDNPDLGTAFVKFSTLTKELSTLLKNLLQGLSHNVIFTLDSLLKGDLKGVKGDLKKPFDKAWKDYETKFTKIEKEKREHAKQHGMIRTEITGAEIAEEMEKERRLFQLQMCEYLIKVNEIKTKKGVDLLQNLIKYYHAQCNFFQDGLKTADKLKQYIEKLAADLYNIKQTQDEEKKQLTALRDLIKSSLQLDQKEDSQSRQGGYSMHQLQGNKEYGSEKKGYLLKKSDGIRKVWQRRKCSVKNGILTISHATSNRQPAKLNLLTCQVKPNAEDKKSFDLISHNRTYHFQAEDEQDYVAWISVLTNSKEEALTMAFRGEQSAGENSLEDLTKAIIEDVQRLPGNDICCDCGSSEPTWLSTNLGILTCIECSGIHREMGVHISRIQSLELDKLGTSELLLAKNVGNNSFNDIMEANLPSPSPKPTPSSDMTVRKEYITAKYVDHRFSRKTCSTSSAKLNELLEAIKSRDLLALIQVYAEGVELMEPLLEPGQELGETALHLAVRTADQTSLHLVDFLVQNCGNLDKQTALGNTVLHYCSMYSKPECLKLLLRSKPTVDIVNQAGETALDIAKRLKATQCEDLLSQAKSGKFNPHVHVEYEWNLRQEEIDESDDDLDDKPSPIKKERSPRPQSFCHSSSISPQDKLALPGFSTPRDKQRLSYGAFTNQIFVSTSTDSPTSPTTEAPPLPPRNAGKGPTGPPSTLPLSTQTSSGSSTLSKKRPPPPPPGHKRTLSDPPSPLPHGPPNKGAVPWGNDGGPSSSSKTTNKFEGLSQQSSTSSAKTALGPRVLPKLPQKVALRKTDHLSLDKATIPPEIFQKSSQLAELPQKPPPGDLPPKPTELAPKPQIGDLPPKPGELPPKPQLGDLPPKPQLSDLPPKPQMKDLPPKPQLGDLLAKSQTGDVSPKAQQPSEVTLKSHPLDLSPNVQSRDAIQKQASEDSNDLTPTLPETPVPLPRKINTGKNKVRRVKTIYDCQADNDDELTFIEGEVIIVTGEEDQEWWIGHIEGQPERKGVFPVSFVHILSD
Sequence of Protein Wnt-3a (P27467 whole entry, the tested form may be a part): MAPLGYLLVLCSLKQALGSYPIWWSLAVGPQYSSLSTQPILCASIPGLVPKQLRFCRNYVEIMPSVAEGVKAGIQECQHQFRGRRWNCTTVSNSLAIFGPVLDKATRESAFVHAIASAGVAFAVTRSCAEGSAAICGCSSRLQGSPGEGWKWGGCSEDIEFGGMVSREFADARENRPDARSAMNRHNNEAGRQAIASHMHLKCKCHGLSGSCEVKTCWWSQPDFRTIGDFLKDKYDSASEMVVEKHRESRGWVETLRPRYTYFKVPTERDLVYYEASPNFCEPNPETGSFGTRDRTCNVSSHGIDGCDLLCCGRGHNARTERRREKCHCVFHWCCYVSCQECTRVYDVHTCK

## Sc1nnc(-c2ccccc2)n1C1C=CCCC1 (configuration not stated)
Beta-lactamase [1]
  IC50: > 59.6 µM (inactive)
Beta-lactamase [2]
  IC50: > 59.6 µM (inactive)
Beta-lactamase [3]
  IC50: > 59.6 µM (inactive)
[4]
  EC50: > 120 µM (not active)
[5]
  EC50: 104 µM (active)
[6]
  IC50: 5.37 µM (active)
[7]
  EC50: > 120 µM (not active)
[8]
  IC50: > 100 µM (inactive)

## CN(C)CCCNc1cc(O)c2ncccc2c1
Caspase-9
  AC50: > 70 µM (inactive)
[9]
  AC50: 25.3 µM (active)
Nonstructural protein 1
  IC50: 4.57 µM (active)
[10]
  AC50: 7.93 µM (active)
[11]
  AC50: 1.15 µM (active)
A549
  AC50: 20.2 µM (active)
[12]
  IC50: 15.8 µM (active)
Caspase-8
  AC50: 42 µM (active)
Caspase-7
  AC50: 7.56 µM (active)
Caspase-6
  AC50: 3.64 µM (active)
[13]
  AC50: 8.67 µM (active)
[14]
  AC50: 32 µM (active)

## Cc1c(CCC(=O)NCCCN2CCCC2=O)c(=O)oc2cc(O)ccc12
Vero
  AC50: 30.1 µM (active)

## O=C(/C=C/c1ccco1)Nc1ccc(-c2nc3ccccc3[nH]2)cc1
Protein Wnt-3a
  IC50: 14.6 µM (active)
[15]
  IC50: 14 µM (inactive)

## COc1cc(OC)c2c(=O)cc(-c3ccccc3)oc2c1 [CHRYSIN DIMETHYL ETHER]
[16]
  IC50: > 67.6 µM (inactive)
cells
  IC50: > 67.6 µM (inactive)

## COc1cc(C)c2c(c1C=O)Oc1c(c(C)c(O)c3c1C(O)OC3=O)OC2=O (configuration not stated) [STICTIC ACID]
Aminopeptidase N
  IC50: 27.3 µM (active)
[17]
  IC50: > 66.6 µM (inactive)
[18]
  IC50: 7.69 µM (active)
Caspase-8
  AC50: > 70 µM (inactive)
Genome polyprotein
  IC50: 71.2 µM (active)
Caspase-7
  AC50: 44.3 µM (active)
Caspase-6
  AC50: 0.817 µM (active)
